What is called IC50 is the concentration that inhibits the measured activity by half.

Each structure is given as a SMILES string. Activity calls are given as the source filed them. How the calls were made is not given here.

In the assay the test system is Leishmania donovani growth inhibition. Description: antileishmanial activity against L. donovani parasites (AID 1159560).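 Further: parasites exposed to compound for 72 h before the viability read.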
In the case of `Cc1ccccc1NS(=O)(=O)c1ccc2[nH]cc(C(=O)NC3CCCC(C)C3C)c(=O)c2c1` (stereo not drawn), the IC50 is 25 µM.

Take `CN(Cc1ccccc1)Cc1nnnn1C1CCN(Cc2ccc(-n3ccnc3)cc2)CC1`: the IC50 is > 50 µM (inactive).

For the compound `Cc1[nH]n2c(=O)c3c(nc2c1-c1ccc(Cl)cc1)CCCC3`, the IC50 is 1.3 µM.

For the compound `CCCCN(C(=O)c1ccc(NC(=O)C(C)C)cc1)c1ccccc1`, the IC50 was 1 µM.

Take `Cc1cc(C)c(C#N)c(SCC(=O)c2ccc3c(c2)OCO3)n1`: the IC50 was > 50 µM (inactive).

For `CCN(CC)c1nc(Nc2ccncc2)nc2ccccc12`, the IC50 was 0.79 µM.

For `N#Cc1cccc(CN2CCC(N(Cc3cccnc3)C(=O)c3cc(F)c(F)cc3F)CC2)c1`, the IC50 was > 50 µM (inactive).

Regarding `CCNc1cc(-c2ccccn2)nc(Nc2ccc(OC)cc2)n1`, the IC50 is 1.6 µM.

Take `O=C(Nc1ccc(C(F)(F)F)cc1)NC1(C(=O)NCc2ccco2)CCCCC1`: the IC50 is 40 µM.

`CCCCCNC(=O)c1c[nH]c2ccc(S(=O)(=O)N(C)c3ccc(OCC)cc3)cc2c1=O`: the IC50 was > 50 µM (inactive).

In the case of `CC(=O)Nc1ccc(Nc2nccc(-c3cnn4ncccc34)n2)cc1C(F)(F)F`, the IC50 is 0.2 µM.

Turning to `O=C(c1cc2cc(Cl)ccc2[nH]1)N1CCCCC1c1cccnc1` (stereo not drawn), the IC50 is 50 µM.

In the case of `COc1ccc(OC)c2c(=O)c(Cc3ccccc3)c(C)[nH]c12`, the IC50 is 0.4 µM.

On to `Cc1[nH]nc(Nc2ccnc3[nH]ccc23)c1C`, for which the IC50 was > 50 µM (inactive).

Take `O=C(Nc1cccc(S(=O)(=O)Nc2ccc(Br)cc2)c1)c1ccc([N+](=O)[O-])s1`: the IC50 is 0.79 µM.

In the case of `COc1cc(-c2nc(N3CCOCC3)sc2-c2ccnc(NC3CCOCC3)n2)ccc1Cl`, the IC50 is > 50 µM (inactive).

Take `Cc1nc2c(-c3cccs3)c(C)nn2c(NCCO)c1C`: the IC50 is > 50 µM (inactive).

For the compound `COc1ccccc1-c1c(C)[nH]c2nc(N)nc(C)c12`, the IC50 is 13 µM.

Turning to `CCS(=O)(=O)Nc1ccc(C2=NN(C(=O)c3cccs3)C(c3ccccc3OC)C2)cc1` (stereo not drawn), the 50% inhibitory concentration (IC50) is 1.3 µM.

On to `O=C(Nc1cccc(Cl)c1)N1CCCCC1c1cccnc1` (stereo not drawn), for which the IC50 is 3.2 µM.

Turning to `COc1ccc(-c2csc(NC(=O)c3ccc([N+](=O)[O-])s3)n2)cc1`, the IC50 was 3.2 µM.

`CCNc1cc(-c2ccccn2)nc(Nc2ccccc2)n1`: the IC50 was 2.5 µM.

Consider `O=C(NCC1CCCCC1)c1cc(=O)c2ccccc2o1`, for which the IC50 is 5 µM.

Turning to `Cc1ccc(C)c(CN2C(=O)NC3(CCc4ccccc43)C2=O)c1` (stereo not drawn), the IC50 is > 50 µM (inactive).

Consider `O=C(Cc1ccccc1)Nc1[nH]nc2sc(C(=O)NC3CCCC3)cc12`, for which the IC50 was 4 µM.

With `N#Cc1cccc(Cc2cc(Nc3cc(C4CC4)[nH]n3)nc(N3CC[C@H]3C(N)=O)n2)c1`, the IC50 is 0.63 µM.

Regarding `O=C(C1CCCCC1)N1CCN(c2nnc(-c3ccccc3)c3ccccc23)CC1`, the IC50 is > 50 µM (inactive).

Turning to `CC(C)(C)C(O)(CCc1ccc(Cl)cc1)Cn1cncn1` (stereo not drawn), the IC50 is 3.2 µM.

On to `COCc1cc(Nc2ccc(Cl)cc2)nc(-c2ccccn2)n1`, for which the IC50 was 2.5 µM.

For the compound `N#Cc1ccc(C(=O)Nc2cccc(-c3cccc(CN4CCC(O)CC4)c3)c2)cc1`, the IC50 is > 50 µM (inactive).

`Cc1cc(N2CCc3ccccc3C2)nc(Nc2ccc(S(=O)(=O)N3CCOCC3)cc2)n1`: the IC50 was 3.2 µM.

Consider `Cc1ccc(C)c(-n2nnnc2Sc2nc([N+](=O)[O-])nn2C)c1`, for which the IC50 is > 50 µM (inactive).

For the compound `NC(=O)c1ccsc1NC(=O)c1ccc([N+](=O)[O-])s1`, the IC50 was 0.32 µM.

`CCCCNc1nccc(-c2c(-c3ccc(F)cc3)nn3c(N4CCOCC4)cccc23)n1`: the IC50 is > 50 µM (inactive).

For the compound `O=C(NCCNc1noc(-c2ccc([N+](=O)[O-])cc2)n1)c1ccc(Cl)cc1`, the IC50 is > 50 µM (inactive).

For `O=C(Nc1nc(-c2ccccn2)cs1)c1ccc(S(=O)(=O)N2CCCCC2)cc1`, the half-inhibitory concentration (IC50) is 0.63 µM.

Consider `O=C(c1ccc(OCCCc2cnc[nH]2)cc1)C1CC1`, for which the IC50 was > 50 µM (inactive).

Turning to `c1ccc(-c2nc(NC3CCCC3)c3ccccc3n2)nc1`, the IC50 is 4 µM.

For the compound `CC(C)(C)CC(=O)NCCc1csc(-c2ccc(F)cc2)n1`, the IC50 is > 50 µM (inactive).

For the compound `CCN(CC)S(=O)(=O)c1ccc(OC)c(NC(=O)c2ccc([N+](=O)[O-])s2)c1`, the IC50 is > 50 µM (inactive).

On to `NS(=O)(=O)c1ccc(Nc2ncc3cccc(OC4CCNCC4)c3n2)cc1`, for which the IC50 was 40 µM.

As for `COc1ccc(Nc2nc(-c3ccccn3)cc(N3CCCC(O)C3)n2)cc1` (stereo not drawn), the IC50 was 2.5 µM.

Turning to `COc1ccc(C2CC(c3ccc(NS(C)(=O)=O)cc3)=NN2C(=O)c2cccs2)cc1OC` (stereo not drawn), the IC50 was 13 µM.

Consider `CCCn1c(NC(=O)CCn2cc(Br)cn2)nc2ccccc21`, for which the IC50 is 10 µM.

As to `O=C(Nc1ccc(C(=O)N2CCCC2c2ccc3c(c2)OCCCO3)cc1)c1ccco1` (stereo not drawn), the IC50 is 0.79 µM.

In the case of `Cc1nccn1C1CCCN(C(=O)c2cc3c(F)cccc3s2)C1` (stereo not drawn), the IC50 was 5 µM.

Turning to `O=C(Nc1nc(-c2ccc(F)cc2)cs1)c1ccc([N+](=O)[O-])s1`, the IC50 is 0.63 µM.

Regarding `CC(C)(C)Nc1nc(Nc2ccc3c(c2)CS(=O)(=O)C3)nc2[nH]ccc12`, the IC50 is 7.9 µM.

Take `Cc1cc(Oc2cc(Cl)c(Cl)cc2Cl)n2ncnc2n1`: the IC50 was 16 µM.

With `COc1ccc(-c2csc(NC(=O)c3ccc([N+](=O)[O-])s3)n2)cc1OC`, the IC50 is 1 µM.

With `NC(=O)c1ccc(-c2cccc(OCCN3CCN(C4CCCCC4)CC3)c2)cc1`, the IC50 was > 50 µM (inactive).

Regarding `NC(=O)c1cc(F)ccc1Nc1nc(NC2CCC(O)CC2)ncc1Br` (stereo not drawn), the IC50 is 1.6 µM.

On to `COc1cc(F)c2ncc(F)c(CCN3CC[C@H](NCc4cc5c(cn4)OCS5)[C@@H](O)C3)c2c1`, for which the IC50 was 25 µM.

Regarding `COc1cccc(C(=O)[C@H]2C[C@@H]2CN(Cc2cccnc2)Cc2cccnc2)c1`, the half-maximal inhibitory concentration (IC50) is 0.16 µM.

`CCOc1ccc(NC(=O)C=Cc2ccc(CC)o2)cc1`: the IC50 is 20 µM.

With `COc1cccc(CN(C)Cc2nc(N)c3c(C)c(C)sc3n2)c1`, the half-maximal inhibitory concentration (IC50) is 32 µM.

Take `O=C(c1cccc(Nc2ncc(-c3ccc4c(c3)OCO4)cn2)c1)N1CCOCC1`: the IC50 is 2 µM.

Consider `NCc1csc(Nc2cc(Oc3ccccc3)ncn2)n1`, for which the IC50 was > 50 µM (inactive).

Consider `CN(Cc1nnnn1C1CCN(Cc2ccc(-n3ccnc3)cc2)CC1)c1ccc(F)cc1F`, for which the IC50 is > 50 µM (inactive).

Regarding `CC(C)(C)CC(=O)NCc1noc(COc2ccccc2)n1`, the IC50 is > 50 µM (inactive).

Turning to `Cn1nc([N+](=O)[O-])nc1N1CCCCC1`, the IC50 was > 50 µM (inactive).

As for `O=C(CSc1ccc(F)cc1)N[C@@H](Cc1cnc[nH]1)C(=O)NCCc1ccccc1`, the IC50 is > 50 µM (inactive).

Turning to `COc1ccnc2[nH]cc(-c3cc(C(=O)N[C@H](CO)c4ccccc4)co3)c12`, the IC50 is 25 µM.

Consider `O=C(Nc1ccccc1)Nc1nc(-c2ccccn2)cs1`, for which the IC50 is 1.6 µM.

On to `Nc1nc(-c2ccccc2)cc(-c2nc3ncccc3[nH]2)n1`, for which the IC50 was 4 µM.

As for `CC1CN(Cc2ccc(C#N)cc2)CCN1c1ccc(NC(=O)c2ccccc2F)cc1` (stereo not drawn), the IC50 is 40 µM.

As to `N#Cc1c(Oc2cccc(Cl)c2)cccc1[N+](=O)[O-]`, the IC50 was 7.9 µM.

As to `COc1ncc(-c2ccc3ncnc(N4CCOCC4)c3c2)cc1NS(C)(=O)=O`, the IC50 was 3.2 µM.

`O=C(CSc1nnc(-c2ccc3c(c2)OCO3)o1)N(Cc1ccco1)CC(F)(F)F`: the IC50 is 16 µM.

On to `COC(=O)c1ccc(-c2cnc3ccc(NCc4ccccn4)nn23)cc1`, for which the IC50 was 13 µM.

Consider `N#Cc1cccc(CN2CCC(c3nc(-c4ccc(C(F)(F)F)nc4)no3)CC2)c1`, for which the IC50 is 13 µM.

Consider `Cc1ccc(C)c(OC2CCN(C(=O)C(C)n3ccnc3)CC2)c1` (stereo not drawn), for which the IC50 is 2.5 µM.

Take `CN(C)Cc1cccc(Nc2nccc(-c3ccc(NCCN)c(C#N)c3)n2)c1`: the IC50 is 2.5 µM.

As to `Cn1ccnc1CN1CCc2[nH]cnc2C1c1ccccc1OCc1ccccc1` (stereo not drawn), the IC50 is > 50 µM (inactive).

Consider `COc1cnc2ccc(=O)n(CCN3CCC(NC(=O)Cc4ccc(Cl)c(Cl)c4)CC3)c2c1`, for which the IC50 was 5 µM.

As to `CCc1cccc(-n2nc(OCC(=O)NC3CCCC3)c3cccnc32)c1`, the IC50 is 2.5 µM.

In the case of `COc1cccc(-c2cc(C(F)(F)F)nc(-n3ccc([N+](=O)[O-])n3)n2)c1`, the IC50 is > 50 µM (inactive).

For the compound `Cc1ccc(S(=O)(=O)Cn2nnnc2C(c2cccnc2)N2CCN(c3ccccc3)CC2)cc1` (stereo not drawn), the IC50 is 1 µM.

Take `CC(C)Nc1nc(Cl)nc2ccccc12`: the IC50 is 20 µM.

Consider `CN1CCC(N(C)c2nccc(N3CCN(C(=O)c4cccc(-c5cccnc5)c4)CC3)n2)CC1`, for which the IC50 is > 50 µM (inactive).

With `O=C(N[C@H](CO)c1ccccc1)c1ccc(-c2c[nH]c3nccc(C(F)(F)F)c23)s1`, the IC50 is 32 µM.

Turning to `O=S(=O)(NCC(c1cccnc1)N1CCN(c2ccccc2F)CC1)c1ccc(F)cc1` (stereo not drawn), the IC50 was 4 µM.

Turning to `CC1(Oc2cncc(Cl)c2)CCN(Cc2cc3ccccc3[nH]2)C1` (stereo not drawn), the IC50 was > 50 µM (inactive).

For `Cc1c(C(C)NC(=O)Nc2cccc(Cl)c2)sc2ncnn12` (stereo not drawn), the IC50 was 2 µM.

For `Cc1ccccc1NS(=O)(=O)c1ccc2[nH]cc(C(=O)NC3CCCCC3)c(=O)c2c1`, the IC50 is > 50 µM (inactive).

As to `Cc1ccc2c(c1)-c1onc(C(=O)N3CCCCC3c3cccnc3)c1CO2` (stereo not drawn), the IC50 is 32 µM.

`Nc1nonc1-c1nc2cncc(C(=O)N3CC[C@H](N)C3)c2n1CC1CC1`: the IC50 is > 50 µM (inactive).

Turning to `C=CC[C@@H]1CC=C[C@@H](C)N1C(=O)CCc1nnc(-c2ccc3c(c2)OCO3)o1`, the IC50 is 6.3 µM.

With `O=C1OCc2ccc(Nc3nccc(-c4cnn5ncccc45)n3)cc21`, the IC50 is 0.063 µM.

For the compound `Clc1ccc(CN2CCN(C3=NCCN3)CC2)cc1Cl`, the IC50 was > 50 µM (inactive).

Consider `O=C(NCc1ccncc1)c1ccccc1N1CCCN(C(=O)Cc2ccc(F)c(F)c2)CC1`, for which the 50% inhibitory concentration (IC50) is 2.5 µM.

For `CC(C)n1c(-c2nonc2N)nc2cccc(OCCN3CCCC3)c21`, the IC50 is > 50 µM (inactive).

As for `O=C(CSc1ccc(-c2ccccn2)nn1)Nc1ccc(Cl)cc1`, the IC50 is > 50 µM (inactive).

For the origin of these results see PubChem BioAssay AID1159560 (GlaxoSmithKline (GSK), 2015).
